# From US9113629B2, “4-amino-6-(4-substituted-phenyl)-picolinates and 6-amino-2-(4-substituted-phenyl)-pyrimidine-4-carboxylates and their use as herbicides” (DOW AGROSCIENCES LLC, priority 2013, dated 2015)
# Read-outs that look alike come from different tables or passages of the source.
# Tests used:
# [1] = tested on: Key Broadleaf Weed and Crop Species; assay: Post-emergent Test II herbicidal activity (Table 5); format: in vivo; settings: post-emergence, 336 h, 14 days after application; for pest or weed control at 70 g/ha: application rate 70 g ai/ha; for pest or weed control at 140 g/ha: application rate 140 g ai/ha
# Summary of the method: (§1)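 Compounds, dissolved in 97:3 acetone/DMSO and diluted into an aqueous carrier containing crop oil concentrate and Triton X-155, are applied over the top of young plants at 187 L/ha. Injury is scored visually at 14 d, 0% meaning no effect and 100% complete kill.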
# [2] = tested on: Key Grass and Sedge Weeds as well as Grass Crops; assay: Post-emergent Test II herbicidal activity (Table 6); format: in vivo; settings: post-emergence, 336 h; for pest or weed control at 70 g/ha: 70 g ai/ha; for pest or weed control at 140 g/ha: 140 g ai/ha
# Summary of the method: as §1
# [3] = ABUTH: velvetleaf (Abutilon theophrasti), read-out: Visual Growth Reduction (%) 14 Days After Application, ABUTH
# [4] = AMARE: redroot pigweed (Amaranthus retroflexus), read-out: Visual Growth Reduction (%) 14 Days After Application, AMARE
# [5] = BRSNN: oilseed-rape, canola (Brassica napus), read-out: Visual Growth Reduction (%) 14 Days After Application, BRSNN
# [6] = CHEAL: lambsquarters (Chenopodium album), read-out: Visual Growth Reduction (%) 14 Days After Application, CHEAL
# [7] = EPHHL: wild poinsettia (Euphorbia heterophylla), read-out: Visual Growth Reduction (%) 14 Days After Application, EPHHL
# [8] = HELAN: sunflower (Helianthus annuus), read-out: Visual Growth Reduction (%) 14 Days After Application, HELAN
# [9] = VIOTR: wild pansy (Viola tricolor), read-out: Visual Growth Reduction (%) 14 Days After Application, VIOTR
# [10] = CYPES: yellow nutsedge (Cyperus esculentus), read-out: Visual Growth Reduction (%) 14 Days After Application, CYPES
# [11] = DIGSA: crabgrass (Digitaria sanguinalis), read-out: Visual Growth Reduction (%) 14 Days After Application, DIGSA
# [12] = ECHCG: barnyardgrass (Echinochloa crus-galli), read-out: Visual Growth Reduction (%) 14 Days After Application, ECHCG
# [13] = ORYSA: rice (Oryza sativa), crop, read-out: Visual Growth Reduction (%) 14 Days After Application, ORYSA
# [14] = SETFA: giant foxtail (Setaria faberi), read-out: Visual Growth Reduction (%) 14 Days After Application, SETFA
# [15] = SORVU: grain sorghum (Sorghum vulgare), read-out: Visual Growth Reduction (%) 14 Days After Application, SORVU
# [16] = TRZSS (wheat, Triticum aestivum), crop, read-out: Visual Growth Reduction (%) 14 Days After Application, TRZSS
# [17] = ZEAMX: maize, corn (Zea mays), crop, read-out: Visual Growth Reduction (%) 14 Days After Application, ZEAMX
Structure (SMILES),"pest or weed control at 70 g/ha [1, 3]","pest or weed control at 140 g/ha [1, 3]","pest or weed control at 70 g/ha [1, 4]","pest or weed control at 140 g/ha [1, 4]","pest or weed control at 70 g/ha [1, 5]","pest or weed control at 140 g/ha [1, 5]","pest or weed control at 70 g/ha [1, 6]","pest or weed control at 140 g/ha [1, 6]","pest or weed control at 70 g/ha [1, 7]","pest or weed control at 140 g/ha [1, 7]","pest or weed control at 70 g/ha [1, 8]","pest or weed control at 140 g/ha [1, 8]","pest or weed control at 70 g/ha [1, 9]","pest or weed control at 140 g/ha [1, 9]","pest or weed control at 70 g/ha [2, 10]","pest or weed control at 140 g/ha [2, 10]","pest or weed control at 70 g/ha [2, 11]","pest or weed control at 140 g/ha [2, 11]","pest or weed control at 70 g/ha [2, 12]","pest or weed control at 140 g/ha [2, 12]",also measured
C#Cc1ccc(-c2nc(C(=O)O)c(Cl)c(N)c2F)c(F)c1 [Compound 108],45 to 59%,75 to 84%,75 to 84%,95 to 100%,85 to 94%,85 to 94%,60 to 74%,75 to 84%,85 to 94%,95 to 100%,85 to 94%,95 to 100%,0 to 29%,45 to 59%,45 to 59%,30 to 44%,60 to 74%,60 to 74%,45 to 59%,75 to 84%,"pest or weed control at 70 g/ha [2, 13]: 0 to 29%; pest or weed control at 140 g/ha [2, 13]: 0 to 29%; pest or weed control at 70 g/ha [2, 14]: 45 to 59%; pest or weed control at 140 g/ha [2, 14]: 30 to 44%; pest or weed control at 70 g/ha [2, 15]: 0 to 29%; pest or weed control at 140 g/ha [2, 15]: 30 to 44%; pest or weed control at 70 g/ha [2, 16]: 30 to 44%; pest or weed control at 140 g/ha [2, 16]: 30 to 44%; pest or weed control at 70 g/ha [2, 17]: 0 to 29%; pest or weed control at 140 g/ha [2, 17]: 45 to 59%; melting point: 165 to 175 °C (dec.)"
C#Cc1ccc(-c2nc(C(=O)OC)c(Cl)c(N)c2F)c(F)c1 [Compound 121],85 to 94%,85 to 94%,0 to 29%,0 to 29%,85 to 94%,95 to 100%,75 to 84%,95 to 100%,45 to 59%,95 to 100%,85 to 94%,95 to 100%,0 to 29%,0 to 29%,45 to 59%,45 to 59%,0 to 29%,0 to 29%,0 to 29%,0 to 29%,"pest or weed control at 70 g/ha [2, 13]: 0 to 29%; pest or weed control at 140 g/ha [2, 13]: 0 to 29%; pest or weed control at 70 g/ha [2, 14]: 0 to 29%; pest or weed control at 140 g/ha [2, 14]: 0 to 29%; pest or weed control at 70 g/ha [2, 15]: 45 to 59%; pest or weed control at 140 g/ha [2, 15]: 60 to 74%; pest or weed control at 70 g/ha [2, 16]: 0 to 29%; pest or weed control at 140 g/ha [2, 16]: 0 to 29%; pest or weed control at 70 g/ha [2, 17]: 95 to 100%; pest or weed control at 140 g/ha [2, 17]: 95 to 100%; melting point: 186 to 188 °C"
"COC(=O)c1nc(-c2ccc(Br)c(F)c2F)nc(N)c1OC [Compound 122, methyl 6-amino-2-(4-bromo-2,3-difluorophenyl)-5-methoxypyrimidine-4-carboxylate]",95 to 100%,95 to 100%,95 to 100%,95 to 100%,95 to 100%,95 to 100%,95 to 100%,95 to 100%,95 to 100%,95 to 100%,85 to 94%,95 to 100%,95 to 100%,85 to 94%,95 to 100%,95 to 100%,45 to 59%,45 to 59%,85 to 94%,95 to 100%,"pest or weed control at 70 g/ha [2, 13]: 0 to 29%; pest or weed control at 140 g/ha [2, 13]: 0 to 29%; pest or weed control at 140 g/ha [2, 14]: 95 to 100%; pest or weed control at 70 g/ha [2, 15]: 95 to 100%; pest or weed control at 140 g/ha [2, 15]: 85 to 94%; pest or weed control at 70 g/ha [2, 16]: 45 to 59%; pest or weed control at 140 g/ha [2, 16]: 45 to 59%; pest or weed control at 70 g/ha [2, 17]: 95 to 100%; pest or weed control at 140 g/ha [2, 17]: 95 to 100%; melting point: 171 to 172 °C"
